From patent publication US20100137313A1 (ASTRAZENECA AB, priority 2008, published 2010)

Target: S. pneumoniae Topoisomerase IV ATPase (ParE) (Streptococcus pneumoniae serotype 4, UniProt Q59961)
Assay: S. pneumoniae Topoisomerase IV ATPase inhibition
Type: biochemical
Settings: values marked * are an average of two or more data points, read-out: % Inh (13 μM) of S. pneumoniae Topoisomerase IV ATPase
Method in brief: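 Malachite green/ammonium molybdate phosphate detection, A650. 1.25 nM ParE, 160 μM ATP, sheared salmon sperm DNA 5 μg/ml, 20 mM Tris pH 8.0, 8.0 mM MgCl2. Controls: 2% DMSO = 0%, 20 μM EDTA = 100% inhibition; IC50 over 10 concentrations.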

Chain of S. pneumoniae Topoisomerase IV ATPase (ParE) (Q59961 whole entry): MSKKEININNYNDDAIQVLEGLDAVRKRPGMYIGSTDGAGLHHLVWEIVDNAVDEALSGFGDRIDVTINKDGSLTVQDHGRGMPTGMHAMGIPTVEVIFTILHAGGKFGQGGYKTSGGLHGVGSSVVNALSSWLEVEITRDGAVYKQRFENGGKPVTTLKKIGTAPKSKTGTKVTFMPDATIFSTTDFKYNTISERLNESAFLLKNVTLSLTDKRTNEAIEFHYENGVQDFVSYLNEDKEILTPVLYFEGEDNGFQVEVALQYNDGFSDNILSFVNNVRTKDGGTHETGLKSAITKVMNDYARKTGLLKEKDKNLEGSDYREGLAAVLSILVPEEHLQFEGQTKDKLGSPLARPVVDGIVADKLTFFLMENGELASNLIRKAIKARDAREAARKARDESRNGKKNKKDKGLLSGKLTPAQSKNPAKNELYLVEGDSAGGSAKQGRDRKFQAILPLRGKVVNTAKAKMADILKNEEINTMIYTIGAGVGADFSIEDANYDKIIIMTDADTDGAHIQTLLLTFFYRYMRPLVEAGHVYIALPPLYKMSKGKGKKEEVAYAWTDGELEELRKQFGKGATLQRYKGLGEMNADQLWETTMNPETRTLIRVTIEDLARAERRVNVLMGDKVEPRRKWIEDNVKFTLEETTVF

With Cc1cnc(C(=O)NCCCNc2nc(Nc3ccc(F)c(Cl)c3)ncc2-c2cccc(/C=C/C(=O)O)c2)cn1 [Example 292, (E)-3-(3-(2-(3-chloro-4-fluorophenylamino)-4-(3-(5-methylpyrazine-2-carboxamido)propylamino)-pyrimidin-5-yl)phenyl)acrylic acid] as the compound, how does the inhibition at 13 µM read?
Its inhibition at 13 µM is 81%.

How did the inhibition at 13 µM turn out when COc1c(F)cc(Nc2ncc(-c3cccc(/C=C/C(=O)O)c3)c(N3CCOCC3)n2)cc1F [Example 403, (E)-3-{3-[2-(3,5-Difluoro-4-methoxy-phenylamino)-4-morpholin-4-yl-pyrimidin-5-yl]-phenyl}-acrylic acid] was run?
Its inhibition at 13 µM is 30%.

Which inhibition at 13 µM does the source give for O=C(O)/C=C/c1cccc(-c2cnc(Nc3ccc(F)c(Cl)c3)nc2-n2nc3cccnc3n2)c1 [Example 334, (2E)-3-(3-{2-[(3-chloro-4-fluorophenyl)amino]-4-(2H-[1,2,3]triazolo[4,5-b]pyridin-2-yl)pyrimidin-5-yl}phenyl)prop-2-enoic acid] here?
The inhibition at 13 µM was 104%.

For CONC(=O)c1cncc(-c2cnc(Nc3ccc(F)c(Cl)c3)nc2NCCc2cccnc2)c1 [Example 476, 5-(2-[(3-chloro-4-fluorophenyl)amino]-4-{[2-(pyridin-3-yl)ethyl]amino}pyrimidin-5-yl)-N-methoxypyridine-3-carboxamide], which inhibition at 13 µM is on record?
The inhibition at 13 µM was 100%.

How did the inhibition at 13 µM turn out when COc1cc(Nc2ncc(-c3cncc(C(=O)NCCO)c3)c(-n3ccc(C(F)(F)F)n3)n2)cc(OC)c1 [Example 682, 5-{2-[(3,5-dimethoxyphenyl)amino]-4-[3-(trifluoromethyl)-1H-pyrazol-1-yl]pyrimidin-5-yl}-N-(2-hydroxyethyl)pyridine-3-carboxamide] was run?
Its inhibition at 13 µM is 100%.

CC(=O)N1CCC(Nc2nc(Nc3ccc(F)c(Cl)c3)ncc2-c2cncnc2)CC1 [Example 35, 1-[4-[[2-[(3-chloro-4-fluorophenyl)amino]-5-pyrimidin-5-ylpyrimidin-4-yl]amino]piperidin-1-yl]ethanone] was tested. Which inhibition at 13 µM did it give?
Its inhibition at 13 µM is 58.3%.

CS(=O)(=O)CCOc1ncc(-c2cnc(Nc3ccc(F)c(Cl)c3)nc2-n2ccc(C(F)(F)F)n2)cc1C(=O)O [Example 966, 5-(2-(3-chloro-4-fluorophenylamino)-4-(3-(trifluoromethyl)-1H-pyrazol-1-yl)pyrimidin-5-yl)-2-(2-(methylsulfonyl)ethoxy)nicotinic acid] was tested. Which inhibition at 13 µM did it give?
Its inhibition at 13 µM is 100%.

For COc1cccc(-c2cnc(Nc3ccc(F)c(Cl)c3)nc2NCCCN(C)C)c1 [Example 26, N^2-(3-chloro-4-fluorophenyl)-N^4-[3-(dimethylamino)propyl]-5-(3-methoxyphenyl)-pyrimidine-2,4-diamine], which inhibition at 13 µM is on record?
Its inhibition at 13 µM is 91.7%.

Which inhibition at 13 µM does the source give for COc1ncc(-c2cnc(Nc3ccc(F)c(Cl)c3)nc2NC2CCOC2)cn1 (stereo not shown) [Example 940, N2-(3-chloro-4-fluorophenyl)-2′-methoxy-N4-(tetrahydrofuran-3-yl)-5,5′-bipyrimidine-2,4-diamine] here?
Its inhibition at 13 µM is 76%.

O=C(O)/C=C/c1cccc(-c2cnc(Nc3ccc(F)c(Cl)c3)nc2-n2ccc(-c3ccsc3)n2)c1 [Example 565, (2E)-3-(3-{2-[(3-chloro-4-fluorophenyl)amino]-4-[3-(thiophen-3-yl)-1H-pyrazol-1-yl]pyrimidin-5-yl}phenyl)prop-2-enoic acid] was tested. Which inhibition at 13 µM did it give?
Its inhibition at 13 µM is 100%.

Fc1ccc(Nc2ncc(-c3cncnc3)c(NCCc3c[nH]cn3)n2)cc1Cl [Example 471, N^2-(3-chloro-4-fluorophenyl)-N^4-[2-(1H-imidazol-4-yl)ethyl]-5,5′-bipyrimidine-2,4-diamine] was tested. Which inhibition at 13 µM did it give?
Its inhibition at 13 µM is 84%.

CCOC(=O)c1cn(CCOC)c2ccc(-c3cnc(Nc4ccc(F)c(Cl)c4)nc3NCCCOC)cc2c1=O [Example 177, ethyl 6-(2-(3-chloro-4-fluorophenylamino)-4-(3-methoxypropylamino)-pyrimidin-5-yl)-1-(2-methoxyethyl)-4-oxo-1,4-dihydroquinoline-3-carboxylate] was tested. Which inhibition at 13 µM did it give?
The inhibition at 13 µM was 68.9%.

With O=C(O)c1cncc(-c2cnc(Nc3ccc(F)c(Cl)c3)nc2NCCc2cccnc2)c1 [Example 229, 5-[2-(3-Chloro-4-fluoro-phenylamino)-4-(2-pyridin-3-yl-ethylamino)-pyrimidin-5-yl]-nicotinic acid] as the compound, how does the inhibition at 13 µM read?
The inhibition at 13 µM was 85%.
